Results taken from PMC11594562, “Novel Peptide–Drug Conjugates with Dual Anticancer Activity” (International Journal of Molecular Sciences, 2024).
Read-outs that look alike come from different tables or passages of the source. Residues, ends and D or L forms follow the SMILES beside them.

Tests used:
[1] = molecular target: Tyrosyl-DNA-phosphodiesterase 1 (TDP1); conditions: Figure 1; cited from earlier work
[2] = system: MCF-7 (adenocarcinoma) cells; assay: MTT cytotoxicity assay, MCF-7 cells; conditions: for GI50: Homo sapiens, MCF7, 48 h, read-out: Cytotoxic dose GI50; for Cytotoxic dose GI80 / Cytotoxic dose GI90: MCF-7, 48 h, MTT
Procedure: (§1) Next, the conjugates and their parent agents were evaluated in a cytotoxicity assay. Human glioblastoma (SNB19, T98G) and adenocarcinoma (MCF-7) cell lines were used in this study.
(§2) Human cancer cells of the SNB19, T98G (cells of human glioblastoma), and MCF-7 (adenocarcinoma) lines, along with cells derived from the kidney of an African green monkey (Vero), were used in this study. These cell lines were obtained from the cell collection of the State Research Center for Virology and Biotechnology “Vector” of Rospotrebnadzor, Koltsovo, Novosibirsk Region. They were cultured in DMEM/F12 medium containing 10% foetal bovine serum, L-glutamine (2 mmol/L), and gentamicin (80 µg/mL) in a CO2 incubator at 37 °C. The tested compounds were dissolved in DMSO (4 and 5) or H2O (6, 7, and 8) and added to the cellular culture at the required concentrations. Three wells were used for each concentration. The cells that were incubated without the compounds were used as controls. Cells were placed in 96-well microplates and cultivated at 37 °C in 5% CO2/95% air for 48 h. The cell viability was assessed through an MTT [3-(4,5-dimethylthiazol-2-yl)-2,5-phenyl-2H-tetrazolium bromide] conversion assay, where 1% MTT was added to each well. Four hours later, the medium was removed, leaving the formazan crystals, and isopropanol was added and mixed for 15 min. The optical density of the samples was measured on a TECAN Sunrise multi-well spectrophotometer at a wavelength of 570 nm, with a reference of 670 nm. The 50% cytotoxic dose (GI50) of each compound (i.e., the compound concentration that lowers the amount of cells to 50% in a culture, or decreases the optical density twofold as compared to the control wells) was calculated from the obtained data. Statistical processing of the results was performed using the Microsoft Excel-2007, […] 6.0, and GraphPad Prism 5.0 programs.

[3] = MTT cytotoxicity assay, non-malignant Vero cells; conditions: African green monkey
Text: (§3) Against the T98G glioblastoma cells, the conjugation yields activities that are intermediate between those of the usnic acid and peptide components for both the hydrazinothiazole- and benzylidenefuranone-based candidates (4 and 5, respectively).
as §2

[4] = system: Vero cells; assay: MTT cytotoxicity assay, non-malignant Vero cells; conditions: Vero, 48 h, MTT
Text: as §3, §2

[5] = Solubility in water / DMSO; format: physicochemical; conditions: water vs DMSO
Text: Three wells were used for each concentration.

[6] = system: SNB19 glioblastoma cells; assay: MTT cytotoxicity assay, SNB19 cells; conditions: for GI50: Homo sapiens, SNB-19, 48 h, read-out: Cytotoxic dose GI50; for Cytotoxic dose GI80 / Cytotoxic dose GI90: SNB19, 48 h, MTT
Procedure: as §1, §2

[7] = system: T98G glioblastoma cells; assay: MTT cytotoxicity assay, T98G cells; conditions: T98G, 48 h; for GI50: Homo sapiens, read-out: Cytotoxic dose GI50; for Cytotoxic dose GI80 / Cytotoxic dose GI90: MTT
Procedure: as §1, §2

[8] = molecular target: T1, TDP1 (Homo sapiens, UniProt Q9NUW8); assay: biochemical; format: biochemical; conditions: for Increase in TDP1 IC50 compared to parent TDP1 inhibitor: conjugate 7 vs 4, conjugate 8 vs 5
T1 construct: made in house; host or cells: E. coli
T1 sequence (Q9NUW8 whole entry): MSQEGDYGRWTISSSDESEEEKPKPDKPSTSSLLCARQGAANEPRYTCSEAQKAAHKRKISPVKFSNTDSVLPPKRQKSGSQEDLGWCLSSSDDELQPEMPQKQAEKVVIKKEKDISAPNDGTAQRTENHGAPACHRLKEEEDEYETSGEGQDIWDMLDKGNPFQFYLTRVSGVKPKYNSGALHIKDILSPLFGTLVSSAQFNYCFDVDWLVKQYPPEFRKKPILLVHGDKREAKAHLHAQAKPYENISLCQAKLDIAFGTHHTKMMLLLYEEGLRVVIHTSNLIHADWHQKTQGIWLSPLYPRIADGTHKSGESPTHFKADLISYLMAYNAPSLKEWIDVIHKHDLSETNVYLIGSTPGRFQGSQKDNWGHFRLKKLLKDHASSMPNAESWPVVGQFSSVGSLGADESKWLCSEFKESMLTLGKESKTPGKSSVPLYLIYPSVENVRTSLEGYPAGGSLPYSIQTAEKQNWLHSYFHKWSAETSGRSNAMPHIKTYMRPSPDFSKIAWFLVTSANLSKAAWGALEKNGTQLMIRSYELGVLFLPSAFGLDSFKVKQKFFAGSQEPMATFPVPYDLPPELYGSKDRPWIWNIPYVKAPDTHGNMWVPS
Procedure: These conjugates and their individual components were tested in a real-time fluorescent assay of TDP1 inhibition.
Recombinant TDP1 protein was expressed in E. coli (the pET 16B plasmid containing TDP1 cDNA was kindly provided by Dr. K.W. Caldecott, University of Sussex, United Kingdom) and isolated as described in [60]. The final volume (200 μL) of the reaction mixture contained TDP1 reaction buffer (50 mM Tris-HCl, pH 8.0, 50 mM NaCl, 7 mM β-mercaptoethanol), 50 nM oligonucleotide substrate, and varied concentrations of the tested compounds. Purified TDP1 was added at a final concentration of 1.5 nM. The TDP1 reaction mixtures were incubated at a constant temperature of 26 °C in a POLARstar OPTIMA fluorimeter (BMG LABTECH, Offenburg, Germany). The fluorescence intensity was measured (Ex. 485/Em. 520 nm) every 1 min for 10 minutes. The efficiency of TDP1 inhibition was evaluated by comparing the rate of increase in the fluorescence of the biosensor in the presence of compound 4 or 5 to that of DMSO (1.5%) in control wells. IC50 values were determined using an eleven-point concentration response curve by MARS Data Analysis 2.0 (BMG LABTECH), and the slope during the linear phase was calculated. The IC50 measurements were carried out in at least three independent experiments.

[9] = MTT cytotoxicity assay, MCF-7 cells; conditions: human, MCF-7 adenocarcinoma cells
Procedure: as §1, §2

[10] = MTT cytotoxicity assay, SNB19 cells; conditions: human, SNB19 glioblastoma cells
Procedure: as §1, §2

[11] = MTT cytotoxicity assay, T98G cells; conditions: human
Procedure: as §1, §2

[12] = system: MCF-7 cells; conditions: native L-K6 sequence; read-out: IC50 (cytotoxicity of native sequence); cited from earlier work
[13] = Vero cells (non-malignant kidney cell line)
[14] = recombinant TDP1 1.5 nM, 50 nM substrate, 26 °C

Row | Compound | IC50 [1] | Cytotoxic dose GI80 [2] | Cytotoxic dose GI90 [2] | Cytotoxic dose GI80 [4] | Cytotoxic dose GI90 [4] | Cytotoxic dose GI80 [6] | Cytotoxic dose GI90 [6] | Cytotoxic dose GI80 [7] | Cytotoxic dose GI90 [7] | GI50 at 48 h [9] | GI50 at 48 h ([3]; Vero cells) | GI50 at 48 h [10] | GI50 at 48 h [11] | further results
1 | CC(=O)c1c(O)c(C)c(O)c2c1OC1=CC(=O)/C(=C(/C)NCCCc3cc(C(C)(C)C)c(O)c(C(C)(C)C)c3)C(=O)[C@@]12C [Compound 2, reference compound] | 0.16 µM | – | – | – | – | – | – | – | – | – | – | – | – | –
2 | CC(=O)C1=C(O)C=C2Oc3c(C(=O)CSC#N)c(O)c(C)c(O)c3[C@@]2(C)C1=O [Compound 3, reference compound] | 1.16 µM | – | – | – | – | – | – | – | – | – | – | – | – | –
3 | CC(=O)C1=C(O)C=C2Oc3c(-c4csc(N/N=C/c5ccc(Br)cc5)n4)c(O)c(C)c(O)c3[C@@]2(C)C1=O [Compound 4] | 0.026 µM | 4.7 ± 0.21 µM | 5.5 ± 0.41 µM | 48 ± 16.76 µM | >100 µM | 61 ± 1.78 µM | 83 ± 1.87 µM | 51 ± 1.08 µM | 90 ± 3.94 µM | – | – | – | – | GI50 [2]: 2.8 ± 0.07 µM; GI50 at 48 h [3, 13]: 4.1 ± 1.66 µM; Solubility [5]: require DMSO for solubility; GI50 [6]: 20.5 ± 2.27 µM; GI50 [7]: 10.1 ± 0.67 µM; IC50 [8]: 0.026 ± 0.011 µM
4 | CC(=O)C1=C(O)C=C2Oc3c4c(c(C)c(O)c3[C@@]2(C)C1=O)O/C(=C\c1ccc(Br)cc1)C4=O [Compound 5] | 0.15 µM | 3.9 ± 0.87 µM | 4.7 ± 1.59 µM | >100 µM | >100 µM | >100 µM | >100 µM | >100 µM | >100 µM | – | – | – | – | GI50 [2]: 2.2 ± 0.31 µM; GI50 at 48 h [3, 13]: > 100 µM; Solubility [5]: require DMSO for solubility; GI50 [6]: > 100 µM; GI50 [7]: 21 ± 2.6 µM; IC50 [8, 14]: 0.15 ± 0.03 µM
5 | CC[C@H](C)[C@H](NC(=O)CNN)C(=O)N[C@@H](CCCCN)C(=O)N[C@@H](CCCCN)C(=O)N[C@H](C(=O)N[C@@H](CC(C)C)C(=O)N[C@@H](CO)C(=O)N[C@@H](CCCCN)C(=O)N[C@H](C(=O)N[C@@H](CCCCN)C(=O)N[C@@H](CCCCN)C(=O)N[C@@H](CC(C)C)C(=O)N[C@@H](CC(C)C)C(=O)N[C@@H](CCCCN)C(N)=O)[C@@H](C)CC)[C@@H](C)CC [Compound 6] (HELM PEPTIDE1{[NNCC(=O)[*:2]].I.K.K.I.L.S.K.I.K.K.L.L.K.[am]}$$$$V2.0) | – | 81 ± 16 µM | >100 µM | >100 µM | >100 µM | >100 µM | >100 µM | >100 µM | >100 µM | 39 ± 6.08 µM | 64 ± 13.7 µM | > 100 µM | > 100 µM | IC50 [8, 14]: 1.8 ± 0.6 µM
6 | CC[C@H](C)[C@H](NC(=O)Cn1nc(C)c2c1C=C1Oc3c(-c4csc(N/N=C/c5ccc(Br)cc5)n4)c(O)c(C)c(O)c3[C@@]1(C)C2=O)C(=O)N[C@@H](CCCCN)C(=O)N[C@@H](CCCCN)C(=O)N[C@H](C(=O)N[C@@H](CC(C)C)C(=O)N[C@@H](CO)C(=O)N[C@@H](CCCCN)C(=O)N[C@H](C(=O)N[C@@H](CCCCN)C(=O)N[C@@H](CCCCN)C(=O)N[C@@H](CC(C)C)C(=O)N[C@@H](CC(C)C)C(=O)N[C@@H](CCCCN)C(N)=O)[C@@H](C)CC)[C@@H](C)CC [Compound 7] (HELM PEPTIDE1{[Cc1nn(CC(=O)[*:2])c2c1C(=O)[C@@]1(C)C(=C2)Oc2c(-c3csc(N/N=C/c4ccc(Br)cc4)n3)c(O)c(C)c(O)c21].I.K.K.I.L.S.K.I.K.K.L.L.K.[am]}$$$$V2.0) | – | >100 µM | >100 µM | >100 µM | >100 µM | 68 ± 3.34 µM | >100 µM | 82 ± 1.78 µM | >100 µM | 65 ± 15.3 µM | 33 ± 3.53 µM | 18 ± 0.35 µM | 42 ± 3.02 µM | Increase in TDP1 IC50 compared to parent TDP1 inhibitor [8]: approximately 6.5 fold
7 | CC[C@H](C)[C@H](NC(=O)Cn1nc(C)c2c1C=C1Oc3c4c(c(C)c(O)c3[C@@]1(C)C2=O)O/C(=C\c1ccc(Br)cc1)C4=O)C(=O)N[C@@H](CCCCN)C(=O)N[C@@H](CCCCN)C(=O)N[C@H](C(=O)N[C@@H](CC(C)C)C(=O)N[C@@H](CO)C(=O)N[C@@H](CCCCN)C(=O)N[C@H](C(=O)N[C@@H](CCCCN)C(=O)N[C@@H](CCCCN)C(=O)N[C@@H](CC(C)C)C(=O)N[C@@H](CC(C)C)C(=O)N[C@@H](CCCCN)C(N)=O)[C@@H](C)CC)[C@@H](C)CC [Compound 8] (HELM PEPTIDE1{[Cc1nn(CC(=O)[*:2])c2c1C(=O)[C@@]1(C)C(=C2)Oc2c3c(c(C)c(O)c21)O/C(=C\c1ccc(Br)cc1)C3=O].I.K.K.I.L.S.K.I.K.K.L.L.K.[am]}$$$$V2.0) | – | 72 ± 2.4 µM | >100 µM | >100 µM | >100 µM | 56 ± 0.7 µM | 85 ± 2.32 µM | 80 ± 2.86 µM | >100 µM | 36 ± 1.24 µM | 18 ± 3.18 µM | 16.5 ± 0.35 µM | 38 ± 1.22 µM | GI50 at 48 h ([10]; Cytotoxic dose GI50, SNB19, 48 h, MTT): 16 µM; Increase in TDP1 IC50 compared to parent TDP1 inhibitor [8]: ~2.3 fold
8 | L-K6 (IKKILSKIKKLLK; HELM PEPTIDE1{[NNCC(=O)[*:2]].I.K.K.I.L.S.K.I.K.K.L.L.K.[am]}$$$$V2.0; N-terminus assumed; SMILES CC[C@H](C)[C@H](NC(=O)CNN)C(=O)N[C@@H](CCCCN)C(=O)N[C@@H](CCCCN)C(=O)N[C@H](C(=O)N[C@@H](CC(C)C)C(=O)N[C@@H](CO)C(=O)N[C@@H](CCCCN)C(=O)N[C@H](C(=O)N[C@@H](CCCCN)C(=O)N[C@@H](CCCCN)C(=O)N[C@@H](CC(C)C)C(=O)N[C@@H](CC(C)C)C(=O)N[C@@H](CCCCN)C(N)=O)[C@@H](C)CC)[C@@H](C)CC) | – | – | – | – | – | – | – | – | – | – | – | – | – | IC50 [12]: 23 µM
